This note sets out measurements from patent US20080280862A1, “Methods, compositions, and kits for the treatment of pain” (priority 2007, published 2008).

This test deals with TNFα. As to the kind of experiment: TNFα secretion by human white blood cells stimulated with PMA/ionomycin, synergy score. Details: key: S = Σ Idata(Idata−ILoewe) × ln dilution factors; volume over Loewe additivity. It counts as cell-based. Conditions: PBMC stimulated with PMA/Ionomycin. The procedure: A 100 μl suspension of diluted human white blood cells contained within each well of a polystyrene 384-well plate (NalgeNunc) was stimulated to secrete TNFα by treatment with a final concentration of 10 ng/mL phorbol 12-myristate 13-acetate (Sigma, P-1585) and 750 ng/mL ionomycin (Sigma, I-0634). Various concentrations of each test compound were added at the time of stimulation. After 16-18 hours of incubation at 37° C. in a humidified incubator, the plate was centrifuged and the supernatant transferred to a white opaque polystyrene 384-well plate (NalgeNunc, Maxisorb) coated with an anti-TNFα antibody (PharMingen, #551220). After a two-hour incubation, the plate was washed (Tecan PowerWasher 384) with PBS containing 0.1% Tween 20 and incubated for an additional one hour with another anti-TNFα antibody that was biotin labeled (PharMingen, #554511) and HRP coupled to strepavidin (PharMingen, #13047E). After the plate was washed with 0.1% Tween 20/PBS, an HRP-luminescent substrate was added to each well and light intensity measured using a LJL Analyst plate luminometer.
The synergy scores calculated for the various combinations of compounds set forth in Table 3 was calculated by the formula S=log fX log fYΣIdata(Idata−ILoewe), summed over all non-single-agent concentration pairs, and where log fX,Y are the natural logarithm of the dilution factors used for each single agent. This effectively calculates a volume between the measured and Loewe additive response surfaces, weighted towards high inhibition and corrected for varying dilution factors.

[1] abbreviates: combination with Hydrocortisone.

On to `CN(C)CCCN1c2ccccc2CCc2ccc(Cl)cc21` [Clomipramine], for which the “Synergy Score based on TNF-α inhibition” value by setting is: (combination with Betamethasone) 0.78; (combination with Budesonide) 0.61; (combination with Clobetasol) 0.65; (combination with Dexamethasone) 1.2; (combination with Diflorasone) 0.55; under setting [1], 0.6. Besides, the “Synergy Score based on TNF-α inhibition” value worked out at 0.82 (combination with Prednisolone) and 0.5 (combination with Triamcinolone).

As for `CN(C)CCC=C1c2ccccc2C=Cc2ccccc21` [Cyclobenzaprine], the “Synergy Score based on TNF-α inhibition” value by setting is: (combination with Betamethasone) 0.29; (combination with Budesonide) 0.7; (combination with Dexamethasone) 1.2; under setting [1], 0.21; (combination with Prednisolone) 0.36; (combination with Triamcinolone) 0.37.

As for `CN1CCC(=C2c3ccccc3C=Cc3ccccc32)CC1` [Cyproheptadine], the “Synergy Score based on TNF-α inhibition” value reads like this: (combination with Betamethasone) 0.8; (combination with Budesonide) 0.56; (combination with Dexamethasone) 1.3; under setting [1], 0.75; (combination with Prednisolone) 1.3; (combination with Triamcinolone) 0.57.

For the compound `CNCCCN1c2ccccc2CCc2ccccc21` [Desipramine], the “Synergy Score based on TNF-α inhibition” value is recorded as 0.69 (combination with Betamethasone); 1 (combination with Budesonide); 0.52 (combination with Clobetasol); 1.6 (combination with Dexamethasone); 0.5 (combination with Diflorasone); 0.74 under setting [1]. Besides, the “Synergy Score based on TNF-α inhibition” value is, setting by setting: (combination with Prednisolone) 1.3; (combination with Triamcinolone) 0.44.

As for `CN(C)CCCN1c2ccccc2CCc2ccccc21` [Imipramine], the “Synergy Score based on TNF-α inhibition” value runs as follows: (combination with Betamethasone) 0.34; (combination with Budesonide) 0.88; (combination with Diflorasone) 0.43; under setting [1], 0.82; (combination with Prednisolone) 0.61; (combination with Triamcinolone) 0.34.

As for `CN1CCC(=C2c3ccccc3CC(=O)c3sccc32)CC1` [Ketotifen], the “Synergy Score based on TNF-α inhibition” value (combination with Betamethasone) amounted to 0.37; the “Synergy Score based on TNF-α inhibition” value (combination with Budesonide) was determined as 0.15; the “Synergy Score based on TNF-α inhibition” value (combination with Dexamethasone) was 1.6; the “Synergy Score based on TNF-α inhibition” value under setting [1] was 0.31; the “Synergy Score based on TNF-α inhibition” value (combination with Prednisolone) is recorded as 0.78; the “Synergy Score based on TNF-α inhibition” value (combination with Triamcinolone) was 0.15.

Regarding `CNCCCC1c2ccccc2C=Cc2ccccc21` [Protriptyline], the “Synergy Score based on TNF-α inhibition” value runs as follows: (combination with Betamethasone) 0.53; (combination with Budesonide) 1.2; (combination with Clobetasol) 0.95; (combination with Dexamethasone) 1.3; (combination with Diflorasone) 0.67; under setting [1], 0.68. The “Synergy Score based on TNF-α inhibition” value is recorded as 1.1 (combination with Prednisolone) and 0.37 (combination with Triamcinolone).
